# Legend:
# [1] = test system: 697 Human B-ALL Cell Lines; test: MTT assay, chemosensitivity of 697 cells (wild type, shControl, Mer knockdown), 48 hours; format: cell-based
# Method: Inhibition of Mer expression results in increased chemosensitivity in 697 cells. […] IC50 values were determined by non-linear regression of data from at least three independent experiments performed in triplicate, as shown in Table 1.
# REH cells [2] = test: Flow cytometry of apoptotic and dead cells (YO-PRO-1 / propidium iodide), REH cells; format: cell-based; settings: REH shMer4A, shMer4B vs shControl, 48 hours
# Excerpt: Apoptotic and dead cells were identified by flow cytometric analysis of cells stained with YO-PRO®-1 and propidium iodide: A) representative flow cytometry profiles. The percentage of apoptotic cells is indicated in the lower-right quadrant. The combined percentage of cells in the two upper quadrants indicates the fraction of dead cells.
# Apoptotic and dead cells were identified by flow cytometric analysis of cells stained with YO-PRO®-1 and propidium iodide: A) representative flow cytometry profiles. The percentage of apoptotic cells is indicated in the lower-right quadrant. The combined percentage of cells in the two upper quadrants indicates the fraction of dead cells. B) mean values and standard errors derived from 3 independent experiments. Results were tested for significance using two-way repeated measures ANOVA and Bonferroni posttests to compare shControl and Mer knockdown cells at equivalent drug concentrations. Significant differences in apoptotic cell populations are indicated by asterisks (* p<0.01, ** p<0.001). Significant differences in the number of dead cells were also observed († p<0.01, ‡‡ p<0.001). No significant differences between wild type and shControl cells were observed.
# REH cells [3] = test: MTT assay, REH cells (wild type, shControl, Mer knockdown) treated with methotrexate for 48 hours; format: cell-based; settings: REH shMer4A, shMer4B vs shControl
# Excerpt: Inhibition of Mer expression results in increased chemosensitivity of REH cells. […] Statistical differences versus shControl are indicated by non-overlapping confidence intervals (95% CI). No significant difference between wild type and shControl was observed.
# G12 astrocytoma cells = test: MTT assay, chemosensitivity of G12 astrocytoma control and knockdown cells; format: cell-based
# Method: (§1) G12 control (shControl) and knockdown cells (shMer1 and shMer4; shAxl8 and shAxl9) were plated in 96-well plates at concentrations determined to allow linear growth over 3 days: A) cells were treated with varying concentrations of temozolomide and relative cell number was assessed 48 h after treatment by colorimetric assessment/MTT assay. Error bars denote experiments performed in triplicate. A172 control (shControl) and knockdown cells (shMer1A and shMer1B; shAxl8 and shAxl9) were plated in 96-well plates at concentrations determined to allow linear growth over 3 days: B) cells were treated with varying concentrations of carboplatin and relative cell number was assessed 48 h after treatment by colorimetric assessment/MTT assay. Error bars represent three independent experiments performed in triplicate.
# (§2) Table 4 provides the IC50 with 95% CI for G12 and A172 control and Mer and Axl knockdown cells, in response to chemotherapy. In Table 4, ‘NR’ indicates an IC50 was never reached. ‘IND’ represents that that CI was indeterminate. The IC50 for each knockdown line was compared to the control line, and an ‘*’ represents that the comparison is statistically different while an ‘NS’ represents that there was no statistically significant difference because either the CI was indeterminate (as with the G12 shAxl9 line treated with carboplatin) or it overlapped with the shControl CI.
# A172 glioblastoma cells = test: MTT assay, chemosensitivity of A172 control and knockdown cells; format: cell-based; settings: Homo sapiens
# Method: as §1, §2
# [4] = test system: A549 Human NSCLC Cell Lines; test: BrdU incorporation ELISA, relative cell proliferation of A549 cells, 48 hours; format: cell-based; settings: for IC50: Homo sapiens, A549, 48 h, BrdU assay
# Method: The relative cell proliferation was determined via a BrdU incorporation ELISA. IC50 values were determined by non-linear regression of data from at least three independent experiments performed in triplicate (see Table 3).
# [5] = test system: A549 Human NSCLC Cell Lines; test: Relative cell numbers of A549 cells (wild type, shControl, Axl/Mer knockdown) after 48 hours of drug; format: cell-based; settings: for IC50: Homo sapiens, A549, 48 h, 48 hours, relative cell number
# 697 cells = test: Flow cytometry of apoptotic and dead cells (YO-PRO-1 / propidium iodide), 697 cells; format: cell-based, human; settings: 697 shMer1A vs shControl, 48 hours
# Method: Apoptotic and dead cells were identified by flow cytometric analysis of cells stained with YO-PRO®-1 and propidium iodide: A) representative flow cytometry profiles; B) mean values and standard errors derived from 3 independent experiments.
# Cultures of shControl or shMer1A 697 cells were exposed to 6-MP, VP-16, or medium only for 48 hours: A) Apoptotic and dead cells were identified by flow cytometric analysis of cells stained with YO-PRO®-1 and propidium iodide: Representative flow cytometry profiles; B) the percentages of apoptotic and dead cells are indicated in lower-right and upper-right quadrants, respectively. Mean values and standard errors derived from 3 independent experiments. Results were tested for significance using two-way ANOVA and Bonferroni posttests to compare shControl and shMer1A cells at equivalent drug concentrations.
# [6] = 697 shMer1A (Mer knockdown) cells
# [7] = 697 shMer1B (Mer knockdown) cells
smiles,measurement,setting,value
"CN(Cc1cnc2nc(N)nc(N)c2n1)c1ccc(C(=O)N[C@@H](CCC(=O)O)C(=O)O)cc1 [MTX, methotrexate]",IC50,[1]; 697 Wild Type cells,27.5 nM
same,IC50,[1]; 697 shControl cells,27.8 nM
same,IC50,[1]; [6],12.3 nM
same,IC50,[1]; [7],11.8 nM
same,apoptotic cell death with Mer knockdown,REH cells [2],increased apoptotic cell death
same,IC50 values in Mer knockdown cells in comparison to shControl cells,REH cells [3],significantly lower IC50 values
"Cn1nnc2c(C(N)=O)ncn2c1=O [Temozolomide, temozolomide]",IC50,"G12 astrocytoma cells; 48 h, G12 shAxl8, 48 h, MTT",6900 nM
same,IC50,"G12 astrocytoma cells; 48 h, G12 shAxl9, 48 h, MTT",1800 nM
same,IC50,"G12 astrocytoma cells; 48 h, G12 shControl, MTT",68600 nM
same,IC50,"G12 astrocytoma cells; 48 h, G12 shMer1, 48 h, MTT",18200 nM
same,IC50,"G12 astrocytoma cells; 48 h, G12 shMer4, 48 h, MTT",1000 nM
same,IC50,"A172 glioblastoma cells; A 172, 48 h, A172 shAxl8, 48 h, MTT",27600 nM
same,IC50,"A172 glioblastoma cells; A 172, 48 h, A172 shAxl9, 48 h, MTT",38900 nM
same,IC50,"A172 glioblastoma cells; A 172, 48 h, A172 shControl, 48 h, MTT",51400 nM
same,IC50,"A172 glioblastoma cells; A 172, 48 h, A172 shMer1A, 48 h, MTT",21300 nM
same,IC50,"A172 glioblastoma cells; A 172, 48 h, A172 shMer1B, 48 h, MTT",7700 nM
"CC[C@]1(O)C[C@H]2CN(CCc3c([nH]c4ccccc34)[C@@](C(=O)OC)(c3cc4c(cc3OC)N(C=O)[C@H]3[C@@](O)(C(=O)OC)[C@H](OC(C)=O)[C@]5(CC)C=CCN6CC[C@]43[C@@H]65)C2)C1 [VCR, vincristine]",IC50,"G12 astrocytoma cells; G12 shAxl8, MTT",0.31 nM
same,IC50,"G12 astrocytoma cells; G12 shAxl9, MTT",0.2 nM
same,IC50,"G12 astrocytoma cells; G12 shControl, MTT",1.64 nM
same,IC50,"G12 astrocytoma cells; G12 shMer1, MTT",0.74 nM
same,IC50,"G12 astrocytoma cells; G12 shMer4, MTT",0.22 nM
same,IC50,"A172 glioblastoma cells; A 172, A172 shAxl8, MTT",0.68 nM
same,IC50,"A172 glioblastoma cells; A 172, A172 shAxl9, MTT",2.92 nM
same,IC50,"A172 glioblastoma cells; A 172, A172 shControl, MTT",2.54 nM
same,IC50,"A172 glioblastoma cells; A 172, A172 shMer1A, MTT",1.25 nM
same,IC50,"A172 glioblastoma cells; A 172, A172 shMer1B, MTT",0.54 nM
same,IC50,[1]; 697 Wild Type cells,1.04 nM
same,IC50,[1]; 697 shControl cells,1.02 nM
same,IC50,[1]; [6],0.54 nM
same,IC50,[1]; [7],0.46 nM
"COc1cc([C@@H]2c3cc4c(cc3[C@@H](O[C@@H]3O[C@@H]5CO[C@@H](C)O[C@H]5[C@H](O)[C@H]3O)[C@H]3COC(=O)[C@H]23)OCO4)cc(OC)c1O [VP-16, etoposide]",sensitivity of A549 cells with inhibition of Mer expression,"[4]; A549 Mer1-G8 knockdown, BrdU, 48 hours",increased sensitivity
same,IC50,"[4]; A549 Wild Type, 48 hours",720 nM
same,IC50,"[4]; A549 shAxl8-G5, 48 hours",1400 nM
same,IC50,"[4]; A549 shAxl9-D3, 48 hours",590 nM
same,IC50,"[4]; A549 shControl, 48 hours",910 nM
same,IC50,"[4]; A549 shMer1-G8, 48 hours",370 nM
same,IC50,[1]; 697 Wild Type cells,181 nM
same,IC50,[1]; 697 shControl cells,173 nM
same,IC50,[1]; [6],54 nM
same,IC50,[1]; [7],60.3 nM
same,sensitivity of the shAxl9-D3 Axl knockdown clone,"[5]; A549 shAxl9-D3, 48 hours",more sensitive
same,IC50,[5]; A549 Wild Type,2200 nM
same,IC50,[5]; A549 shAxl8-G5 (Axl knockdown),330 nM
same,IC50,[5]; A549 shAxl9-D3 (Axl knockdown),1010 nM
same,IC50,[5]; A549 shControl,3320 nM
same,IC50,[5]; A549 shMer1-G8 (Mer knockdown),3840 nM
same,induction of apoptotic cell death with Mer knockdown,697 cells,increased induction of apoptotic cell death

# Source: patent US20120230991A1, “METHODS AND COMPOUNDS FOR ENHANCING ANTI-CANCER THERAPY” (priority 2008, published 2012)
